Results reported in patent US10882871B2, “18/19F-labelled compounds which target the prostate specific membrane antigen” (BRITISH COLUMBIA CANCER AGENCY BRANCH, priority 2016, dated 2021).

Key:
[1] = test system: PSMA-expressing prostate cancer; settings: clinical trials, PSMA-expressing prostate cancer patients; cited from earlier work
[2] = test system: PSMA-expressing LNCAP cancer xenografts; experiment: Biodistribution and tumor-to-background contrast ratios of 18F-labeled tracers; format: in vivo, mouse (NODSCID 1L2RγKO male mice)
Experimental: LNCap cell line was obtained from ATCC (LNCaP clone FGC, CRL-1740). It was established from a metastatic site of left supraclavicular lymph node of human prostatic adenocarcinoma. Cells were cultured in PRMI 1640 medium supplemented with 10% FBS, penicillin (100 U/mL) and streptomycin (100 μg/mL) at 37° C. in a humidified incubator containing 5% CO2. Cells grown to 80-90% confluence were then washed with sterile phosphate-buffered saline (1×PBS pH 7.4) and trypsinization. The collected cells number was counted with a Hausser Scientific (Horsham, Pa.) Hemacytometer.
Imaging and biodistribution experiments were performed using NODSCID 1L2RγKO male mice. Mice were anesthetized by inhalation with 2% isoflurane in oxygen, and implanted subcutaneously with 1×10^7 LNCaP cells behind left shoulder. Mice were imaged or used in biodistribution studies when the tumor grew up to reach 5-8 mm in diameter during 5-6 weeks.
PET imaging experiments were conducted using Siemens Inveon micro PET/CT scanner. Each tumor bearing mouse was injected 6-8 MBq of F-18 labeled tracer through the tail vein under anesthesia (2% isoflurane in oxygen). The mice were allowed to recover and roam freely in their cage. After 50 min, the mice were sedated again with 2% isoflurane in oxygen inhalation and positioned in the scanner. A 10-min CT scan was conducted first for localization and attenuation correction after segmentation for reconstructing the PET images. Then, a 10-min static PET imaging was performed to determined uptake in tumor and other organs. The mice were kept warm by a heating pad during acquisition. For imaging studies acquired at 2 h post-injection (p.i.), the mice were placed in the micro PET/CT scanner at 110 min p.i. Then, the CT and PET acquisitions were conducted as described above.
For biodistribution studies, the mice were injected with the radiotracer as described above. At predetermined time points (1 or 2 h), the mice was anesthetized with 2% isoflurane inhalation, and euthanized by CO2 inhalation. Blood was withdrawn immediately from the heart, and the organs/tissues of interest were collected. The collected organs/tissues were weighed and counted using an automatic gamma counter. The uptake in each organ/tissue was normalized to the injected dose using a standard curve, and expressed as the percentage of the injected dose per gram of tissue (% ID/g).

SMILES	Biodistribution Adrenal glands ([2]; 1 h) [% ID/g]	Biodistribution Blood ([2]; 1 h) [% ID/g]	Biodistribution Bone ([2]; 1 h) [% ID/g]	Biodistribution Brain ([2]; 1 h) [% ID/g]	Biodistribution Fat ([2]; 1 h) [% ID/g]	Biodistribution Heart ([2]; 1 h) [% ID/g]	Biodistribution Intestine ([2]; 1 h) [% ID/g]	Biodistribution Kidneys ([2]; 1 h) [% ID/g]	Biodistribution Liver ([2]; 1 h) [% ID/g]	Biodistribution Lungs ([2]; 1 h) [% ID/g]	Biodistribution Muscle ([2]; 1 h) [% ID/g]	Biodistribution Pancreas ([2]; 1 h) [% ID/g]	Biodistribution Spleen ([2]; 1 h) [% ID/g]	Biodistribution Stomach ([2]; 1 h) [% ID/g]	Biodistribution Testes ([2]; 1 h) [% ID/g]	Biodistribution Tumor ([2]; 1 h) [% ID/g]	Tumor:Blood contrast ratio ([2]; 1 h)	Tumor:Muscle contrast ratio ([2]; 1 h)	Tumor:kidney contrast ratio ([2]; 1 h)	other results
O=C([O-])CN1CCN(CC(=O)[O-])CCN(CC(=O)NCC2CCC(C(=O)N[C@@H](Cc3ccc4ccccc4c3)C(=O)NCCCC[C@H](NC(=O)N[C@@H](CCC(=O)O)C(=O)O)C(=O)O)CC2)CCN(CC(=O)[O-])CC1.[177Lu+3] (stereo partly shown) [PSMA-617 radiolabeled with Lu-177]																				positive response [1]: > 50%
C[N+](C)(Cc1cn(Cc2ccc(C(=O)NCCCC[C@H](NC(=O)N[C@@H](CCC(=O)O)C(=O)O)C(=O)O)cn2)nn1)C[B-](F)(F)[18F] [^18F-HTK01130]	1.46 ± 0.56	0.58 ± 0.09	0.22 ± 0.05	0.04 ± 0.01	0.39 ± 0.14	0.21 ± 0.05	0.31 ± 0.01	63.3 ± 13.5	1.26 ± 0.27	0.75 ± 0.10	0.20 ± 0.07	0.31 ± 0.11	0.95 ± 0.56	0.09 ± 0.03	0.30 ± 0.05	4.44 ± 1.11	7.60 ± 1.33	24.1 ± 8.79	0.07 ± 0.02	Biodistribution Adrenal glands ([2]; 2 h): 1.08 ± 0.51 % ID/g; Biodistribution Blood ([2]; 2 h): 0.21 ± 0.10 % ID/g; Biodistribution Bone ([2]; 2 h): 0.20 ± 0.09 % ID/g; Biodistribution Brain ([2]; 2 h): 0.03 ± 0.01 % ID/g; Biodistribution Fat ([2]; 2 h): 0.32 ± 0.30 % ID/g; Biodistribution Heart ([2]; 2 h): 0.10 ± 0.04 % ID/g; Biodistribution Intestine ([2]; 2 h): 0.24 ± 0.11 % ID/g; Biodistribution Kidneys ([2]; 2 h): 48.2 ± 24.6 % ID/g; Biodistribution Liver ([2]; 2 h): 1.20 ± 0.30 % ID/g; Biodistribution Lungs ([2]; 2 h): 0.30 ± 0.10 % ID/g; Biodistribution Muscle ([2]; 2 h): 0.08 ± 0.03 % ID/g; Biodistribution Pancreas ([2]; 2 h): 0.20 ± 0.18 % ID/g; Biodistribution Spleen ([2]; 2 h): 0.39 ± 0.35 % ID/g; Biodistribution Stomach ([2]; 2 h): 0.05 ± 0.03 % ID/g; Biodistribution Testes ([2]; 2 h): 0.16 ± 0.10 % ID/g; Biodistribution Tumor ([2]; 2 h): 4.27 ± 0.65 % ID/g; Tumor:Blood contrast ratio ([2]; 2 h): 7.60 ± 1.33; Tumor:Muscle contrast ratio ([2]; 2 h): 24.1 ± 8.79; Tumor:kidney contrast ratio ([2]; 2 h): 0.07 ± 0.02
C[N+](C)(Cc1cn(CC(=O)NCCOCCOCCC(=O)N[C@@H](Cc2ccc3ccccc3c2)C(=O)NCCCC[C@H](NC(=O)N[C@@H](CCC(=O)O)C(=O)O)C(=O)O)nn1)C[B-](F)(F)[18F] [^18F-HTK01146]	0.81 ± 0.25	0.13 ± 0.08	0.10 ± 0.07	0.01 ± 0.01	0.27 ± 0.14	0.07 ± 0.02	22.2 ± 2.79	29.9 ± 25.0	0.83 ± 0.34	0.40 ± 0.13	0.05 ± 0.01	0.13 ± 0.11	0.75 ± 0.36	0.21 ± 0.12	0.18 ± 0.05	5.09 ± 1.10	54.6 ± 38.5	117 ± 52.1	0.28 ± 0.22	
C[N+](C)(Cc1cn(CC(=O)NC[C@H]2CC[C@H](C(=O)N[C@@H](Cc3ccc4ccccc4c3)C(=O)NCCCC[C@H](NC(=O)N[C@@H](CCC(=O)O)C(=O)O)C(=O)O)CC2)nn1)C[B-](F)(F)[18F] [^18F-HTK01157]	2.89 ± 1.94	0.89 ± 0.42	0.34 ± 0.14	0.04 ± 0.01	0.83 ± 0.33	0.31 ± 0.11	13.0 ± 4.61	73.9 ± 35.2	1.14 ± 0.48	1.21 ± 0.48	0.36 ± 0.18	0.30 ± 0.17	2.67 ± 0.98	0.37 ± 0.45	0.74 ± 0.55	14.0 ± 5.20	17.1 ± 5.40	49.7 ± 28.5	0.21 ± 0.08	
O=C(O)CC[C@H](NC(=O)N[C@@H](CCCCNC(=O)c1ccc(Cn2cc(C[n+]3ccc([B-](F)(F)[18F])cc3)nn2)nc1)C(=O)O)C(=O)O [^18F-PSMA PyrBF3]	6.66 ± 2.33	0.74 ± 0.15	0.76 ± 0.57	0.05 ± 0.01	1.05 ± 0.49	0.34 ± 0.08	0.48 ± 0.22	164 ± 50.2	1.28 ± 0.18	1.67 ± 0.47	0.28 ± 0.07	0.68 ± 0.50	3.36 ± 1.08	0.15 ± 0.03	0.67 ± 0.27	6.26 ± 0.82	8.67 ± 1.74	23.5 ± 5.00	0.04 ± 0.02	
O=C(O)CC[C@H](NC(=O)N[C@@H](CCCCNC(=O)[C@H](Cc1ccc2ccccc2c1)NC(=O)[C@H]1CC[C@H](CNC(=O)Cn2cc(C[n+]3ccc([B-](F)(F)[18F])cc3)nn2)CC1)C(=O)O)C(=O)O [^18F-PSMA-617-PyrBF3]	2.02 ± 0.56	1.45 ± 1.15	0.54 ± 0.14	0.03 ± 0.00	0.42 ± 0.30	0.25 ± 0.06	20.8 ± 4.79	83.5 ± 35.7	1.10 ± 0.28	1.06 ± 0.23	0.18 ± 0.03	0.26 ± 0.08	2.84 ± 1.51	0.98 ± 0.12	0.39 ± 0.13	23.1 ± 8.26	35.4 ± 27.6	145 ± 57.0	0.32 ± 0.11	
